In patent publication US6465641B1, “One pot synthesis of 5′-hydroxy phosphorylated nucleoside derivatives, and compounds formed thereby” (Parker Hughes Institute, priority 1999, dated 2002):

Tests used:
[1] = tested on: sperm; details: read-out: EC50 value in sperm motility assays
[2] = tested on: HIV; details: read-out: IC50 value in HIV replication assays

“5-bromo-6-methoxy-5,6-dihydro-AZT-5′-(p-bromophenyl methoxyalaninyl phosphate)” gave an EC50 [1] of 2800 nM and an IC50 [2] of 5 nM.
